Results taken from patent US8148391B2 (Cephalon, Inc., priority 2006, dated 2012).
Where two headings read alike, the source gives them in different places. Each block holds one molecule with its values, some of them ahead of it.

What was measured:
[1] = molecular target: T1, c-Met (cytoplasmic domain) (Homo sapiens, UniProt P08581); test: c-Met Kinase Assay (same methods as for ALK, with modifications); assay type: biochemical
T1 construct: 10 ng/mL c-Met (cytoplasmic domain, Invitrogen Corporation #PV3143); purchased Invitrogen Corporation PV3143
T1 sequence (P08581 956-1390 limits assumed): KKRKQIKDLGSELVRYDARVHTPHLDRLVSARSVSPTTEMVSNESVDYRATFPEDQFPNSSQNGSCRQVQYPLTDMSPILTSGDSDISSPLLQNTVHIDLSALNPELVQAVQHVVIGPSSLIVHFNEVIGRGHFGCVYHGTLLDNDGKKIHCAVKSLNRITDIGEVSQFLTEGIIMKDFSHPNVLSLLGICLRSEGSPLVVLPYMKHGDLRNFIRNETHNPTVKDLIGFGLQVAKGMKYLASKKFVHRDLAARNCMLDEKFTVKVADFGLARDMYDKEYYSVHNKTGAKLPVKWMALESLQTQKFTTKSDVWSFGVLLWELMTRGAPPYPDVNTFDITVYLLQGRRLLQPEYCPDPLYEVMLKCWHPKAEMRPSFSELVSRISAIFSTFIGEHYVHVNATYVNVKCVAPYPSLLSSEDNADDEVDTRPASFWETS
Outline: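 Steps: coat wells with PLC-γ (10 μg/mL, Tris-buffered saline); add 10 ng/mL c-Met cytoplasmic domain to initiate; incubate 15 min, 37° C; detect phosphoproduct via Eu-N1 PT66 antibody.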

[2] = molecular target: T2, baculovirus-expressed ALK (Homo sapiens, UniProt Q9UM73); test: ALK Kinase Assay (ELISA-type, time-resolved fluorescence); assay type: biochemical
T2 construct: host or cells: baculovirus expression system
T2 sequence (Q9UM73 19-1620): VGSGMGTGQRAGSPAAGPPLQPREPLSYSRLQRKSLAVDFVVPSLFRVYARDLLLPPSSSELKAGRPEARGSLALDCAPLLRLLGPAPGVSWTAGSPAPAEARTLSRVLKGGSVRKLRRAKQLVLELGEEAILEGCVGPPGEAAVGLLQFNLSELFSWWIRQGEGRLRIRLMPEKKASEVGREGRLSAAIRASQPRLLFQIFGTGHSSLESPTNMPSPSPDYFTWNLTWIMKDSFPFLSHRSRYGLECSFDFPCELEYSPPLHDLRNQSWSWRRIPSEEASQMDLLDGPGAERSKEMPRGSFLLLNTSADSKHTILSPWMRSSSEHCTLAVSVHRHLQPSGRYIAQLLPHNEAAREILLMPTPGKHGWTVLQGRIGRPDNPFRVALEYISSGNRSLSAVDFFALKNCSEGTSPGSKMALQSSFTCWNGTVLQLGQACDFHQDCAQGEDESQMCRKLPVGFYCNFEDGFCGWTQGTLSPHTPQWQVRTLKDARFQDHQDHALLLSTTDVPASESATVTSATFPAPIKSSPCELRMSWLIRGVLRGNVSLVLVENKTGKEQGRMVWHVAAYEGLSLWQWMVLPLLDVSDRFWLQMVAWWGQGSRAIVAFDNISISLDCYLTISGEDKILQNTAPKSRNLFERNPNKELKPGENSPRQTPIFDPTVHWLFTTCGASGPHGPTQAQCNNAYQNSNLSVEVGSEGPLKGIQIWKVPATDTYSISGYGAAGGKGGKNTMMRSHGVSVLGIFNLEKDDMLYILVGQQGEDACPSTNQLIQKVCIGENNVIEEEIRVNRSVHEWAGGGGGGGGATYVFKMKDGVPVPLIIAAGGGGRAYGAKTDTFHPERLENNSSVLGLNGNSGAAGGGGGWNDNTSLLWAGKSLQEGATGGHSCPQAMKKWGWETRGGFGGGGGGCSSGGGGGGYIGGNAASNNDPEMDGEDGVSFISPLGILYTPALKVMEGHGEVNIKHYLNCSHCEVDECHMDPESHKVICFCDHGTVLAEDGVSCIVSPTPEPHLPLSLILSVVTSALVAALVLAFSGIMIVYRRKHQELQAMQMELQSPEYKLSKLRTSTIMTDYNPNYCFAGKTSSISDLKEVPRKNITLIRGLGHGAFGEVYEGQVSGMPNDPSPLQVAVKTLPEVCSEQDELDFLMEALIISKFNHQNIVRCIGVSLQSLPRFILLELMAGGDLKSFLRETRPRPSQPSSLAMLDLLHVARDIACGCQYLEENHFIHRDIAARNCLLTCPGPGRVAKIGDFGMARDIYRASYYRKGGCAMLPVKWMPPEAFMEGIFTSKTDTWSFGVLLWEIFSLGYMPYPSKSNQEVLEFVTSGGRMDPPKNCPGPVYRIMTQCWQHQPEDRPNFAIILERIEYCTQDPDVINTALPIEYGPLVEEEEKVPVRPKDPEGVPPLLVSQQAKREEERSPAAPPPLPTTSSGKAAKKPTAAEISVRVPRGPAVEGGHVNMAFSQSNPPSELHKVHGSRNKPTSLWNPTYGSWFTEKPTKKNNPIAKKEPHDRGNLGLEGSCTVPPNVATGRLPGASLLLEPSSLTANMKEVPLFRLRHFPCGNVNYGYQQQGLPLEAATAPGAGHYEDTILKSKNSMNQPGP
Outline: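 Wells were coated with phospholipase C-γ at 10 μg/mL in Tris-buffered saline. Adding 30 ng/ml enzyme started the reaction, which ran at 37° C for 15 minutes before Eu-N1 PT66 antibody detection. Percent inhibition versus log10 concentration gave IC50 by variable-slope fit.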

[3] = c-Met kinase inhibition, 1 μM ATP (Km level), read-out: cMet Activity
[4] = ALK kinase inhibition, 1 μM ATP (Km level), read-out: ALK Activity
[5] = c-Met kinase inhibition, 1 μM ATP, read-out: cMet Activity
[6] = ALK kinase inhibition, 1 μM ATP, read-out: ALK Activity
[7] = 1 μM ATP (Km level), read-out: cMet Activity (c-Met Kinase Inhibition, IC50)
[8] = 1 μM ATP (Km level), read-out: ALK Activity (ALK Kinase Inhibition, IC50)
[9] = 1 μM ATP (Km level), 10 ng/mL c-Met, read-out: cMet Activity (c-Met kinase inhibition, IC50 class)
[10] = 1 μM ATP (Km level), 30 ng/ml ALK, 37° C., 15 minutes, read-out: ALK Activity (ALK kinase inhibition, IC50 class)

IC50 [1, 5]: < 100 nM | IC50 [2, 6]: 1000 to 10000 nM
SMILES: CNC(=O)c1cccc(C)c1Nc1nc(Nc2ccc3c(c2)CCC(=O)NC3(C)C)ncc1Cl [Example 1830, 2-(5-Chloro-2-(1,1-dimethyl-3-oxo-2,3,4,5-tetrahydro-1H-benzo[c]azepin-7-ylamino)pyrimidin-4-ylamino)-N,3-dimethylbenzamide]

IC50 [1, 5]: > 10000 nM | IC50 [2, 6]: < 100 nM
SMILES: COCCOC(=O)c1ccccc1Nc1nc(Nc2cc3c(cc2OC)CCN(CC(C)O)CC3)ncc1Cl (stereo not drawn) [Example 1550, 2-{5-Chloro-2-[3-(2-hydroxy-propyl)-8-methoxy-2,3,4,5-tetrahydro-1H-3-benzazepin-7-ylamino]-pyrimidin-4-ylamino}-benzoic acid 2-methoxy-ethyl ester]

IC50 [1, 9]: > 10000 nM | IC50 [2, 10]: 1000 to 10000 nM
SMILES: CS(=O)(=O)c1cccc(F)c1Nc1nc(Nc2ccc3c(c2)NC(=O)CCC3)ncc1Cl [Example 1261, 8-[5-Chloro-4-(2-fluoro-6-methanesulfonyl-phenylamino)-pyrimidin-2-ylamino]-1,3,4,5-tetrahydro-1-benzazepin-2-one]

IC50 [1, 9]: < 100 nM | IC50 [2, 10]: 100 to 1000 nM
SMILES: CNC(=O)CN1CCc2ccc(Nc3ncc(Cl)c(Nc4c(Cl)cccc4C(=O)NC)n3)cc2CC1 [Example 1373, 3-Chloro-2-[5-chloro-2-(3-methylcarbamoylmethyl-2,3,4,5-tetrahydro-1H-benzo[d]azepin-7-ylamino)-pyrimidin-4-ylamino]-N-methyl-benzamide]

IC50 [1, 9]: 100 to 1000 nM | IC50 [2, 10]: 100 to 1000 nM
SMILES: CCN1C(=O)CCCc2ccc(Nc3ncc(Cl)c(Nc4cccc(CCC#N)c4)n3)cc21 [Example 1223, 3-{3-[5-Chloro-2-(1-ethyl-2-oxo-2,3,4,5-tetrahydro-1H-1-benzazepin-8-ylamino)-pyrimidin-4-ylamino]-phenyl}-propionitrile]

IC50 [1, 7]: 100 to 1000 nM | IC50 [2, 8]: 100 to 1000 nM
SMILES: CN1C(=O)CCCc2cc(Nc3ncc(Cl)c(Nc4cccc5c4ncn5C)n3)ccc21 [Example 1007, 7-[5-Chloro-4-(1-methyl-1H-benzoimidazol-4-ylamino)-pyrimidin-2-ylamino]-1-methyl-1,3,4,5-tetrahydro-benzo[b]azepin-2-one]

IC50 [1, 5]: < 100 nM | IC50 [2, 6]: < 100 nM
SMILES: CNC(=O)c1cccc(Cl)c1Nc1nc(Nc2ccc3c(c2)CCC(=O)NC3(C)C)ncc1Cl [Example 1828, 3-Chloro-2-(5-chloro-2-(1,1-dimethyl-3-oxo-2,3,4,5-tetrahydro-1H-benzo[c]azepin-7-ylamino)pyrimidin-4-ylamino)-N-methylbenzamide]

IC50 [1, 5]: 100 to 1000 nM | IC50 [2, 6]: < 100 nM
SMILES: CNC(=O)c1ccccc1Nc1nc(Nc2cc3c(cc2OC)N(C)C(=O)OCC3)ncc1C(F)(F)F [Example 1513, 2-[2-(3-Methoxy-5-methyl-6-oxo-5,6,8,9-tetrahydro-7-oxa-5-aza-benzocyclohepten-2-ylamino)-5-trifluoromethyl-pyrimidin-4-ylamino]-N-methyl-benzamide]

IC50 [1, 7]: > 10000 nM | IC50 [2, 8]: < 100 nM
SMILES: COCCN1CCc2cc(Nc3ncc(Cl)c(Nc4ccccc4-c4ncccc4C)n3)c(OC)cc2CC1 [Example 987, 5-Chloro-N*2*-[8-methoxy-3-(2-methoxy-ethyl)-2,3,4,5-tetrahydro-1H-benzo[d]azepin-7-yl]-N*4*-[2-(3-methyl-pyridin-2-yl)-phenyl]-pyrimidine-2,4-diamine]

IC50 [1, 7]: 1000 to 10000 nM | IC50 [2, 8]: < 100 nM
SMILES: CN1CCN(C2CCc3ccc(Nc4ncc(Cl)c(N[C@H]5[C@@H](C(N)=O)[C@@H]6C=C[C@H]5C6)n4)cc3CC2)CC1 (stereo partly drawn) [Example 892, (1S,2S,3R,4R)-3-{5-Chloro-2-[7-(4-methyl-piperazin-1-yl)-6,7,8,9-tetrahydro-5H-benzocyclohepten-2-ylamino]-pyrimidin-4-ylamino}-bicyclo[2.2.1]hept-5-ene-2-carboxylic acid amide]

Continued, molecule first:

SMILES: CCN1CCc2ccc(Nc3ncc(Cl)c(N[C@@H]4CCCC[C@H]4NC(=O)C(F)(F)F)n3)cc2CC1 [Example 446, N-{(1R,2R)-2-[5-Chloro-2-(3-ethyl-2,3,4,5-tetrahydro-1H-benzo[d]azepin-7-ylamino)-pyrimidin-4-ylamino]-cyclohexyl}-2,2,2-trifluoro-acetamide]
IC50 [1, 3]: 100 to 1000 nM | IC50 [2, 4]: < 100 nM

SMILES: CNC(=O)c1ccccc1Nc1nc(Nc2ccc3c(c2)C2CCC3CNC2)ncc1Cl (stereo not drawn) [Example 277, 2-[2-(10-Aza-tricyclo[6.3.2.0*2,7*]trideca-2,4,6-trien-4-ylamino)-5-chloro-pyrimidin-4-ylamino]-N-methyl-benzamide]
IC50 [1, 3]: < 100 nM | IC50 [2, 4]: < 100 nM

SMILES: COc1c(Nc2ncc(Cl)c(N[C@@H]3CCCC[C@H]3NS(C)(=O)=O)n2)ccc2c1CCC(NCCO)CC2 (single isomer, unassigned) [Example 698]
IC50 [1, 7]: > 10000 nM | IC50 [2, 8]: < 100 nM

SMILES: COCCN(C)C1CCc2ccc(Nc3ncc(Cl)c(N[C@@H]4CCCC[C@H]4NS(C)(=O)=O)n3)c(OC)c2CC1 (stereo partly drawn) [Example 702, N-[(1R,2R)-2-(5-Chloro-2-{1-methoxy-7-[(2-methoxy-ethyl)-methyl-amino]-6,7,8,9-tetrahydro-5H-benzocyclohepten-2-ylamino}-pyrimidin-4-ylamino)-cyclohexyl]-methanesulfonamide]
IC50 [1, 7]: > 10000 nM | IC50 [2, 8]: < 100 nM

SMILES: COc1cc(N2CCOCC2)ccc1Nc1nc(Nc2ccc3c(c2OC)CCCC(=O)N3C)ncc1Cl [Example 117, 7-[5-Chloro-4-(2-methoxy-4-morpholin-4-yl-phenylamino)-pyrimidin-2-ylamino]-6-methoxy-1-methyl-1,3,4,5-tetrahydro-benzo[b]azepin-2-one]
IC50 [1, 3]: > 10000 nM | IC50 [2, 4]: < 100 nM

SMILES: CC(C)N1CC2CCC(C1)c1cc(Nc3ncc(Cl)c(N[C@@H]4CCCC[C@H]4NS(C)(=O)=O)n3)ccc12 (stereo partly drawn) [Example 296, N-{(1R,2R)-2-[5-Chloro-2-(10-Isopropyl-10-aza-tricyclo[6.3.2.0*2,7*]trideca-2,4,6-trien-4-ylamino)-pyrimidin-4-ylamino]-cyclohexyl}-methanesulfonamide]
IC50 [1, 3]: 100 to 1000 nM | IC50 [2, 4]: < 100 nM

SMILES: COCCN1CCc2ccc(OC)c(Nc3ncc(Cl)c(N[C@H]4[C@@H](C(N)=O)[C@@H]5C=C[C@H]4C5)n3)c2CC1 (relative stereo) [Example 245, (2-exo,3-exo)-3-{5-Chloro-2-[7-methoxy-3-(2-methoxy-ethyl)-2,3,4,5-tetrahydro-1H-benzo[d]azepin-6-ylamino]-pyrimidin-4-ylamino}-bicyclo[2.2.1]hept-5-ene-2-carboxylic acid amide]
IC50 [1, 3]: > 10000 nM | IC50 [2, 4]: 1000 to 10000 nM

SMILES: CCN1C(=O)CN(CCOC)Cc2cc(OC)c(Nc3ncc(Cl)c(Nc4ccc(N5CCOCC5)cc4OC)n3)cc21 [Example 726, 8-[5-Chloro-4-(2-methoxy-4-morpholin-4-yl-phenylamino)-pyrimidin-2-ylamino]-1-ethyl-7-methoxy-4-(2-methoxy-ethyl)-1,3,4,5-tetrahydro-benzo[e][1,4]diazepin-2-one]
IC50 [1, 7]: > 10000 nM | IC50 [2, 8]: 100 to 1000 nM

SMILES: CCNC(=O)c1ccccc1Nc1nc(Nc2ccc3c(c2)N(CC)CCN(CC)C3)ncc1Cl [Example 718, 2-[5-Chloro-2-(1,4-diethyl-2,3,4,5-tetrahydro-1H-1,4-benzodiazepin-8-ylamino)-pyrimidin-4-ylamino]-N-ethyl-benzamide]
IC50 [1, 7]: < 100 nM | IC50 [2, 8]: < 100 nM

SMILES: COc1cc2c(cc1Nc1ncc(Cl)c(Nc3ccc(N4CCN(C)CC4)cc3OC)n1)CCN(CCS(C)(=O)=O)CC2 [Example 771, 5-Chloro-N*2*-[3-(2-methanesulfonyl-ethyl)-8-methoxy-2,3,4,5-tetrahydro-1H-benzo[d]azepin-7-yl]-N*4*-[2-methoxy-4-(4-methyl-piperazin-1-yl)-phenyl]-pyrimidine-2,4-diamine]
IC50 [1, 7]: > 10000 nM | IC50 [2, 8]: < 100 nM

SMILES: CCN1C(=O)CCC(C)(C)c2cc(Nc3ncc(Cl)c(Nc4c(Cl)cccc4C(=O)NC)n3)ccc21 [Example 389, 3-Chloro-2-[5-chloro-2-(1-ethyl-5,5-dimethyl-2-oxo-2,3,4,5-tetrahydro-1H-benzo[b]azepin-7-ylamino)-pyrimidin-4-ylamino]-N-methyl-benzamide]
IC50 [1, 3]: 100 to 1000 nM | IC50 [2, 4]: 100 to 1000 nM

SMILES: CCNC(=O)c1ccccc1Nc1nc(Nc2cc3c(cc2OC)CCN(CC(F)F)CC3)ncc1Cl [Example 767, 2-{5-Chloro-2-[3-(2,2-difluoro-ethyl)-8-methoxy-2,3,4,5-tetrahydro-1H-benzo[d]azepin-7-ylamino]-pyrimidin-4-ylamino}-N-ethyl-benzamide]
IC50 [1, 7]: > 10000 nM | IC50 [2, 8]: < 100 nM

SMILES: CS(=O)(=O)N[C@@H]1CCCC[C@H]1Nc1nc(Nc2ccc3c(c2)C2CCC3CN(S(C)(=O)=O)C2)ncc1Cl (stereo partly drawn) [Example 294, N-{(1R,2R)-2-[5-Chloro-2-(10-methanesulfonyl-10-aza-tricyclo[6.3.2.0*2,7*]trideca-2,4,6-trien-4-ylamino)-pyrimidin-4-ylamino]-cyclohexyl}-methanesulfonamide]
IC50 [1, 3]: 100 to 1000 nM | IC50 [2, 4]: < 100 nM

SMILES: COc1cc2c(cc1Nc1ncc(Cl)c(Nc3ccc(N4CCOCC4)cc3OC)n1)CCN(CC(N)=O)CC2 [Example 799, 2-{7-[5-Chloro-4-(2-methoxy-4-morpholin-4-yl-phenylamino)-pyrimidin-2-ylamino]-8-methoxy-1,2,4,5-tetrahydro-benzo[d]azepin-3-yl}-acetamide]
IC50 [1, 7]: > 10000 nM | IC50 [2, 8]: < 100 nM
